From ChEMBL document CHEMBL1133591, “Potent derivatives of glucagon-like peptide-1 with pharmacokinetic properties suitable for once daily administration” (J Med Chem, 2000)
Numbered stars: 1 amine (or outer) side, 2 acyl side, 3 side chain; on linkers, the order of the positions; unused ones are H or OH. Square brackets hold non-standard residues; d marks the D form. Side chains are listed from the residue outwards. Peptide text beside a SMILES is read from it. * marks the point of attachment. ξ: configuration not given here. Desaminohistidyl = O=C(CCc1c[nH]cn1)*; ξγGlu = O=C(O)C(CCC(=O)[*:2])N[*:1]; Stearoyl = CCCCCCCCCCCCCCCCCC(=O)*; Palmitoyl = CCCCCCCCCCCCCCCC(=O)*; Octanoyl = CCCCCCCC(=O)*; ξK = NCCCCC(N)C(=O)O

Biological target: Glucagon-like peptide 1 receptor (Homo sapiens, UniProt P43220)
Test: Potency measured using recombinant human GLP-1 receptor expressed in Baby Hamster Kidney (BHK)cells
Assay type: cell-based

Glucagon-like peptide 1 receptor, sequence (P43220 whole entry): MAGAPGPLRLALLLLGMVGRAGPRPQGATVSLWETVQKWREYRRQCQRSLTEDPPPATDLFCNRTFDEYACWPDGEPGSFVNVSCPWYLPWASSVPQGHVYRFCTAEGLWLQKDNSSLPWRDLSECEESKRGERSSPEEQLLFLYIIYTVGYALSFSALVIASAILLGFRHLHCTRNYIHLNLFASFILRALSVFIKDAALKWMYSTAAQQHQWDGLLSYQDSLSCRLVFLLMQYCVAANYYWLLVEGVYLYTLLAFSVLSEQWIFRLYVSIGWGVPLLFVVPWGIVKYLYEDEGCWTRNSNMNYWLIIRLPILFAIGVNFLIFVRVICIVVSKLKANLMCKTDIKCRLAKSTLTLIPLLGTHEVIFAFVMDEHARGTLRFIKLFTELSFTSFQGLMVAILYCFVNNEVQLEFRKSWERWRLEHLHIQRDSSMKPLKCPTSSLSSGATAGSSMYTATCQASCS

Row | EC50 | Structure (SMILES)
1 | 0.213 nM | CCCCCCCCCCCCCCCCCC(=O)NC(CCC(=O)NCCCCC(NC(=O)[C@H](CCC(=O)O)NC(=O)[C@H](CCCN=C(N)N)NC(=O)CNC(=O)[C@H](CCCN=C(N)N)NC(=O)[C@@H](NC(=O)[C@H](CC(C)C)NC(=O)[C@H](Cc1c[nH]c2ccccc12)NC(=O)[C@H](C)NC(=O)[C@@H](NC(=O)[C@H](Cc1ccccc1)NC(=O)[C@H](CCC(=O)O)NC(=O)[C@H](CCCN=C(N)N)NC(=O)[C@H](C)NC(=O)[C@H](C)NC(=O)[C@H](CCC(N)=O)NC(=O)CNC(=O)[C@H](CCC(=O)O)NC(=O)[C@H](CC(C)C)NC(=O)[C@H](Cc1ccc(O)cc1)NC(=O)[C@H](CO)NC(=O)[C@H](CO)NC(=O)[C@@H](NC(=O)[C@H](CC(=O)O)NC(=O)[C@H](CO)NC(=O)[C@@H](NC(=O)[C@H](Cc1ccccc1)NC(=O)[C@@H](NC(=O)CNC(=O)[C@H](CCC(=O)O)NC(=O)CNC(=O)[C@@H](N)Cc1c[nH]cn1)[C@@H](C)O)[C@@H](C)O)C(C)C)[C@@H](C)CC)C(C)C)C(=O)O)C(=O)O (stereo not given in full) (H-HGEGTFTSDVSSYLEGQAAREFIAWLVRGRE[ξK]([ξγGlu-Stearoyl])-OH)
2 | 0.115 nM | CCCCCCCCCCCCCCCCCC(=O)NC(CCC(=O)NCCCCC(NC(=O)CNC(=O)[C@H](CCCN=C(N)N)NC(=O)CNC(=O)[C@H](CCCN=C(N)N)NC(=O)[C@@H](NC(=O)[C@H](CC(C)C)NC(=O)[C@H](Cc1c[nH]c2ccccc12)NC(=O)[C@H](C)NC(=O)[C@@H](NC(=O)[C@H](Cc1ccccc1)NC(=O)[C@H](CCC(=O)O)NC(=O)[C@H](CCCN=C(N)N)NC(=O)[C@H](C)NC(=O)[C@H](C)NC(=O)[C@H](CCC(N)=O)NC(=O)CNC(=O)[C@H](CCC(=O)O)NC(=O)[C@H](CC(C)C)NC(=O)[C@H](Cc1ccc(O)cc1)NC(=O)[C@H](CO)NC(=O)[C@H](CO)NC(=O)[C@@H](NC(=O)[C@H](CC(=O)O)NC(=O)[C@H](CO)NC(=O)[C@@H](NC(=O)[C@H](Cc1ccccc1)NC(=O)[C@@H](NC(=O)CNC(=O)[C@H](CCC(=O)O)NC(=O)[C@H](C)NC(=O)[C@@H](N)Cc1c[nH]cn1)[C@@H](C)O)[C@@H](C)O)C(C)C)[C@@H](C)CC)C(C)C)C(=O)O)C(=O)O (stereo not given in full)
3 | 1.26 nM | CCCCCCCCCCCCCCCC(=O)NC(CCC(=O)NCCCC[C@H](NC(=O)[C@@H](N)Cc1c[nH]cn1)C(=O)N[C@@H](CCC(=O)O)C(=O)NCC(=O)N[C@H](C(=O)N[C@@H](Cc1ccccc1)C(=O)N[C@H](C(=O)N[C@@H](CO)C(=O)N[C@@H](CC(=O)O)C(=O)N[C@H](C(=O)N[C@@H](CO)C(=O)N[C@@H](CO)C(=O)N[C@@H](Cc1ccc(O)cc1)C(=O)N[C@@H](CC(C)C)C(=O)N[C@@H](CCC(=O)O)C(=O)NCC(=O)N[C@@H](CCC(N)=O)C(=O)N[C@@H](C)C(=O)N[C@@H](C)C(=O)N[C@@H](CCCN=C(N)N)C(=O)N[C@@H](CCC(=O)O)C(=O)N[C@@H](Cc1ccccc1)C(=O)N[C@H](C(=O)N[C@@H](C)C(=O)N[C@@H](Cc1c[nH]c2ccccc12)C(=O)N[C@@H](CC(C)C)C(=O)N[C@H](C(=O)N[C@@H](CCCN=C(N)N)C(=O)NCC(=O)N[C@@H](CCCN=C(N)N)C(=O)NCC(=O)O)C(C)C)[C@@H](C)CC)C(C)C)[C@@H](C)O)[C@@H](C)O)C(=O)O (stereo not given in full)

The next lines start with the compound.

Row | Structure (SMILES) | EC50
4 | CCCCCCCCCCCCCCCC(=O)NC(CCC(=O)NCCCC[C@H](NC(=O)[C@H](CCCN=C(N)N)NC(=O)[C@H](C)NC(=O)[C@H](C)NC(=O)[C@H](CCC(N)=O)NC(=O)CNC(=O)[C@H](CCC(=O)O)NC(=O)[C@H](CC(C)C)NC(=O)[C@H](Cc1ccc(O)cc1)NC(=O)[C@H](CO)NC(=O)[C@H](CO)NC(=O)[C@@H](NC(=O)[C@H](CC(=O)O)NC(=O)[C@H](CO)NC(=O)[C@@H](NC(=O)[C@H](Cc1ccccc1)NC(=O)[C@@H](NC(=O)CNC(=O)[C@H](CCC(=O)O)NC(=O)[C@H](C)NC(=O)[C@@H](N)Cc1c[nH]cn1)[C@@H](C)O)[C@@H](C)O)C(C)C)C(=O)N[C@@H](Cc1ccccc1)C(=O)N[C@H](C(=O)N[C@@H](C)C(=O)N[C@@H](Cc1c[nH]c2ccccc12)C(=O)N[C@@H](CC(C)C)C(=O)N[C@H](C(=O)N[C@@H](CCCN=C(N)N)C(=O)NCC(=O)N[C@@H](CCCN=C(N)N)C(=O)NCC(=O)O)C(C)C)[C@@H](C)CC)C(=O)O (stereo not given in full) (H-HAEGTFTSDVSSYLEGQAARK([ξγGlu-Palmitoyl])FIAWLVRGRG-OH) | 0.0363 nM
5 | CCCCCCCC(=O)NC(CCC(=O)NCCCC[C@H](NC(=O)[C@@H](NC(=O)[C@H](CC(C)C)NC(=O)[C@H](Cc1c[nH]c2ccccc12)NC(=O)[C@H](C)NC(=O)[C@@H](NC(=O)[C@H](Cc1ccccc1)NC(=O)[C@H](CCC(=O)O)NC(=O)[C@H](CCCN=C(N)N)NC(=O)[C@H](C)NC(=O)[C@H](C)NC(=O)[C@H](CCC(N)=O)NC(=O)CNC(=O)[C@H](CCC(=O)O)NC(=O)[C@H](CC(C)C)NC(=O)[C@H](Cc1ccc(O)cc1)NC(=O)[C@H](CO)NC(=O)[C@H](CO)NC(=O)[C@@H](NC(=O)[C@H](CC(=O)O)NC(=O)[C@H](CO)NC(=O)[C@@H](NC(=O)[C@H](Cc1ccccc1)NC(=O)[C@@H](NC(=O)CNC(=O)[C@H](CCC(=O)O)NC(=O)[C@H](C)NC(=O)CCc1c[nH]cn1)[C@@H](C)O)[C@@H](C)O)C(C)C)[C@@H](C)CC)C(C)C)C(=O)NCC(=O)N[C@@H](CCCN=C(N)N)C(=O)NCC(=O)O)C(=O)O (stereo not given in full) (Desaminohistidyl-AEGTFTSDVSSYLEGQAAREFIAWLVK([ξγGlu-Octanoyl])GRG-OH) | 0.169 nM
6 | CCCCCCCCCCCCCCCC(=O)NC(CCC(=O)NCCCC[C@H](NC(=O)[C@H](C)NC(=O)[C@H](C)NC(=O)[C@H](CCC(N)=O)NC(=O)CNC(=O)[C@H](CCC(=O)O)NC(=O)[C@H](CC(C)C)NC(=O)[C@H](Cc1ccc(O)cc1)NC(=O)[C@H](CO)NC(=O)[C@H](CO)NC(=O)[C@@H](NC(=O)[C@H](CC(=O)O)NC(=O)[C@H](CO)NC(=O)[C@@H](NC(=O)[C@H](Cc1ccccc1)NC(=O)[C@@H](NC(=O)CNC(=O)[C@H](CCC(=O)O)NC(=O)[C@H](C)NC(=O)CCc1c[nH]cn1)[C@@H](C)O)[C@@H](C)O)C(C)C)C(=O)N[C@@H](CCC(=O)O)C(=O)N[C@@H](Cc1ccccc1)C(=O)N[C@H](C(=O)N[C@@H](C)C(=O)N[C@@H](Cc1c[nH]c2ccccc12)C(=O)N[C@@H](CC(C)C)C(=O)N[C@H](C(=O)N[C@@H](CCCN=C(N)N)C(=O)NCC(=O)N[C@@H](CCCN=C(N)N)C(=O)NCC(=O)O)C(C)C)[C@@H](C)CC)C(=O)O (stereo not given in full) | 0.687 nM
7 | CCCCCCCC(=O)NCCCC[C@H](NC(=O)[C@@H](NC(=O)[C@H](CC(C)C)NC(=O)[C@H](Cc1c[nH]c2ccccc12)NC(=O)[C@H](C)NC(=O)[C@@H](NC(=O)[C@H](Cc1ccccc1)NC(=O)[C@H](CCC(=O)O)NC(=O)[C@H](CCCN=C(N)N)NC(=O)[C@H](C)NC(=O)[C@H](C)NC(=O)[C@H](CCC(N)=O)NC(=O)CNC(=O)[C@H](CCC(=O)O)NC(=O)[C@H](CC(C)C)NC(=O)[C@H](Cc1ccc(O)cc1)NC(=O)[C@H](CO)NC(=O)[C@H](CO)NC(=O)[C@@H](NC(=O)[C@H](CC(=O)O)NC(=O)[C@H](CO)NC(=O)[C@@H](NC(=O)[C@H](Cc1ccccc1)NC(=O)[C@@H](NC(=O)CNC(=O)[C@H](CCC(=O)O)NC(=O)[C@H](C)NC(=O)CCc1c[nH]cn1)[C@@H](C)O)[C@@H](C)O)C(C)C)[C@@H](C)CC)C(C)C)C(=O)NCC(=O)N[C@@H](CCCN=C(N)N)C(=O)NCC(=O)O (Desaminohistidyl-AEGTFTSDVSSYLEGQAAREFIAWLVK(Octanoyl)GRG-OH) | 0.236 nM
8 | CCCCCCCCCCCCCCCC(=O)NC(CCC(=O)NCCCCC(NC(=O)CNC(=O)[C@H](CCCN=C(N)N)NC(=O)CNC(=O)[C@H](CCCN=C(N)N)NC(=O)[C@@H](NC(=O)[C@H](CC(C)C)NC(=O)[C@H](Cc1c[nH]c2ccccc12)NC(=O)[C@H](C)NC(=O)[C@@H](NC(=O)[C@H](Cc1ccccc1)NC(=O)[C@H](CCC(=O)O)NC(=O)[C@H](CCCN=C(N)N)NC(=O)[C@H](C)NC(=O)[C@H](C)NC(=O)[C@H](CCC(N)=O)NC(=O)CNC(=O)[C@H](CCC(=O)O)NC(=O)[C@H](CC(C)C)NC(=O)[C@H](Cc1ccc(O)cc1)NC(=O)[C@H](CO)NC(=O)[C@H](CO)NC(=O)[C@@H](NC(=O)[C@H](CC(=O)O)NC(=O)[C@H](CO)NC(=O)[C@@H](NC(=O)[C@H](Cc1ccccc1)NC(=O)[C@@H](NC(=O)CNC(=O)[C@H](CCC(=O)O)NC(=O)CNC(=O)[C@@H](N)Cc1c[nH]cn1)[C@@H](C)O)[C@@H](C)O)C(C)C)[C@@H](C)CC)C(C)C)C(=O)O)C(=O)O (stereo not given in full) (H-HGEGTFTSDVSSYLEGQAAREFIAWLVRGRG[ξK]([ξγGlu-Palmitoyl])-OH) | 0.328 nM
9 | CCCCCCCCCC(CCCCC(=O)NCCCCC(NC(=O)CNC(=O)[C@H](CCCN=C(N)N)NC(=O)CNC(=O)[C@H](CCCN=C(N)N)NC(=O)[C@@H](NC(=O)[C@H](CC(C)C)NC(=O)[C@H](Cc1c[nH]c2ccccc12)NC(=O)[C@H](C)NC(=O)[C@@H](NC(=O)[C@H](Cc1ccccc1)NC(=O)[C@H](CCC(=O)O)NC(=O)[C@H](CCCN=C(N)N)NC(=O)[C@H](C)NC(=O)[C@H](C)NC(=O)[C@H](CCC(N)=O)NC(=O)CNC(=O)[C@H](CCC(=O)O)NC(=O)[C@H](CC(C)C)NC(=O)[C@H](Cc1ccc(O)cc1)NC(=O)[C@H](CO)NC(=O)[C@H](CO)NC(=O)[C@@H](NC(=O)[C@H](CC(=O)O)NC(=O)[C@H](CO)NC(=O)[C@@H](NC(=O)[C@H](Cc1ccccc1)NC(=O)[C@@H](NC(=O)CNC(=O)[C@H](CCC(=O)O)NC(=O)[C@H](C)NC(=O)[C@@H](N)Cc1c[nH]cn1)[C@@H](C)O)[C@@H](C)O)C(C)C)[C@@H](C)CC)C(C)C)C(=O)O)C(=O)O (stereo not given in full) | 0.0056 nM
10 | CCCCCCCCCCCCCCCCCC(=O)NC(CCC(=O)NCCCC[C@H](NC(=O)CNC(=O)[C@H](CCCN=C(N)N)NC(=O)[C@@H](NC(=O)[C@H](CC(C)C)NC(=O)[C@H](Cc1c[nH]c2ccccc12)NC(=O)[C@H](C)NC(=O)[C@@H](NC(=O)[C@H](Cc1ccccc1)NC(=O)[C@H](CCC(=O)O)NC(=O)[C@H](CCCN=C(N)N)NC(=O)[C@H](C)NC(=O)[C@H](C)NC(=O)[C@H](CCC(N)=O)NC(=O)CNC(=O)[C@H](CCC(=O)O)NC(=O)[C@H](CC(C)C)NC(=O)[C@H](Cc1ccc(O)cc1)NC(=O)[C@H](CO)NC(=O)[C@H](CO)NC(=O)[C@@H](NC(=O)[C@H](CC(=O)O)NC(=O)[C@H](CO)NC(=O)[C@@H](NC(=O)[C@H](Cc1ccccc1)NC(=O)[C@@H](NC(=O)CNC(=O)[C@H](CCC(=O)O)NC(=O)[C@H](C)NC(=O)[C@@H](N)Cc1c[nH]cn1)[C@@H](C)O)[C@@H](C)O)C(C)C)[C@@H](C)CC)C(C)C)C(=O)NCC(=O)O)C(=O)O (stereo not given in full) (H-HAEGTFTSDVSSYLEGQAAREFIAWLVRGK([ξγGlu-Stearoyl])G-OH) | 0.116 nM
